Results taken from patent EP4711370A1, “DEUTERATED CAMPTOTHECIN COMPOUND, AND PREPARATION THEREFOR AND USE THEREOF” (Shanghai Qilu Pharmaceutical Research and Development …, priority 2023, dated 2024).

What was measured:
Pharmacokinetics in mice = type: in vivo, Balb/c mice; conditions: 3 mg/kg, Mouse PK (IV, 3 mpk), single injection, plasma
Source text: Objective: To evaluate the pharmacokinetic characteristics of the compounds of the present disclosure in mice.
Balb/c mice were taken, with 12 mice per group (half male and half female), randomly grouped, and administered a single injection of the sample (Formulation A: 5% DMSO + 95% (15% sulfobutyl-β-cyclodextrin-normal saline), Formulation B: 5% DMSO-10% Solutol HS 15-85% normal saline, diluted according to the dose). Blood samples were collected at crossover time points, including before administration and at 5 min, 30 min, 1 h, 2 h, 4 h, 6 h, 8 h, 10 h, and 24 h after administration. Plasma was collected, and the sample concentration in plasma was detected by LC-MS. Table 2-1. PK parameters of the compounds of the present disclosure in mice

Pharmacokinetics in rats = type: in vivo, SD rats; conditions: 3 mg/kg, Rat PK (IV, 3 mpk), single injection, plasma, Formulation A
Description: Objective: To evaluate the pharmacokinetic characteristics of the compounds of the present disclosure in rats.
SD rats (purchased from Beijing Vital River Laboratory Animal Technology Co., Ltd.) were used, with 6 rats per group (half male and half female), randomly grouped. A single injection of the sample (Formulation A: 5% DMSO + 95% (15% sulfobutyl-β-cyclodextrin-normal saline), diluted according to the dose) was administered. Blood samples were collected at crossover time points: before administration and at 5 min, 30 min, 1 h, 2 h, 4 h, 6 h, 8 h, 10 h, and 24 h after administration. Plasma was collected, and the sample concentration in plasma was detected by LC-MS. Table 3-1. PK parameters of the compounds of the present disclosure in rats

[1] = Repeated administration toxicity experiment in rats; type: in vivo, SD rats; conditions: for Clinical observation: course after ataxia / Clinical observation: animals showed ataxia immediately after administration / Clinical observation: died during recovery (among animals with ataxia) / Body weight / food intake: tail vein injection for 7 consecutive days; for Clinical observation: animals showed ataxia immediately after administration / Clinical observation: died during recovery (among animals with ataxia): main trial group + TK group; for gross dissection: lungs: gross dissection on D8 after administration; for Body weight / food intake: 0.3 mg/kg and 1.0 mg/kg, Compound 2 stated relative to Dxd at the same dose
Description: Test sample preparation: The test sample was weighed according to the predetermined weight into a glass vial. First, 1 mL of DMSO was added and mixed until the test sample was dissolved, followed by the addition of 1 mL of Solutol HS-15.
SD rats (purchased from Beijing Vital River) were used as test animals. […] During the acclimation period, one cage-side observation was conducted daily; during the administration period, all animals were subjected to clinical observations twice daily (morning and afternoon). Reactions in various aspects, including the skin, fur, eyes (sclera), ears, nose, oral cavity, chest, abdomen, urogenital area, limbs, as well as respiration, movement, urination, defecation (including urine and feces color), and behavioral changes, were recorded. Daily weight data of the main test group animals were documented. For animals scheduled for dissection, terminal body weight (fasted) was measured before dissection. The food intake of the test animals was also recorded.
At the end of the administration, gross dissection was performed on D8 after administration.

[2] = system: Calu-3 (human lung adenocarcinoma cells); test: In vitro antitumor activity (cell proliferation inhibition, CellTiter-Glo); type: cell-based; conditions: Calu-3 cells, 48 hours of incubation
Source text: (§1) Objective: To detect the in vitro inhibitory activity of the compounds of the present disclosure against NCI-N87 (human gastric cancer cells), Calu-3 (human lung adenocarcinoma cells), MDA-MB-453 (human breast cancer cells), KPL-4 (human breast cancer cells), or MDA-MB-468 (human breast cancer cells).
(§2) Tumor cells in the logarithmic growth phase, including NCI-N87 (source: ATCC, catalog number: CRL-5822), Calu-3 (source: ATCC, catalog number: HTB-55), MDA-MB-453 (source: ATCC, catalog number: HTB-131), KPL-4 (source: Nanjing Cobioer Biosciences, catalog number: CBP60379), or MDA-MB-468 (source: ATCC, catalog number: HTB-132), were seeded into cell plates at a density of 5,000 cells/well. The cell plates were then incubated in a 37°C, 5% CO2 cell culture incubator for 12-16 hours. 100 µL of sample (starting at 10 µM, 4-fold dilution, 10 concentrations) was added to each well. After gentle shaking, the plates were placed in the incubator for further incubation. After 48 hours of incubation, 70 µL of CellTiter-Glo™ (Promega, catalog number: G7572) working solution was added, gently shaken to lyse the cells, and the plates were read on a microplate reader. The cell proliferation inhibition rate was calculated using the following formula: cell proliferation inhibition rate = (1-sample well/control well)×100%. GraphPad Prism 8.0 software was used to plot the Log value of sample concentration as the x-axis and Cytotoxicity% as the y-axis. The data were analyzed by Nonlinear regression (curve fit) to obtain the IC50 values for each sample, with specific results shown in Tables 1-1 and 1-2. Table 1-1. In vitro activity test results of the compounds of the present disclosure

[3] = system: MDA-MB-453 (human breast cancer cells); test: as above; type: cell-based; conditions: MDA-MB-453 cells, 48 hours of incubation
Source text: as §1, §2

[4] = system: MDA-MB-468 (human breast cancer cells); test: as above; type: cell-based; conditions: MDA-MB-468 cells, 48 hours of incubation
Source text: as §1, §2

[5] = system: NCI-N87 (human gastric cancer cells); test: as above; type: cell-based; conditions: 48 hours of incubation
Source text: as §1, §2

[6] = In vitro plasma stability; type: in vitro ADME; conditions: 37°C, 5 µM
Description: 398 µL of plasma was taken and preheated to 37°C, then co-incubated for 15 minutes. 2 µL of the sample solution was added to the plasma to prepare a final sample concentration of 5 µM. The above solution was co-incubated at 37°C, and 50 µL aliquots were taken at 0, 15, 30, 60, and 120 minutes, followed by the addition of 450 µL of ice-cold acetonitrile (containing the internal standard). The solution was vortexed for 10 minutes, centrifuged, and the remaining content of the parent substrate was detected by the LC-MS/MS method. For specific results, refer to Table 4-1. Table 4-1. Plasma stability of the compounds of the present disclosure

[7] = system: KPL-4 (human breast cancer cells); test: In vitro antitumor activity (cell proliferation inhibition, CellTiter-Glo); type: cell-based; conditions: KPL4, KPL-4 cells, 48 hours of incubation
Source text: as §1, §2

[8] = both sexes, Balb/c, Formulation A (5% DMSO + 95% (15% sulfobutyl-β-cyclodextrin-normal saline))
[9] = in vivo, Formulation A (5% DMSO + 95% (15% sulfobutyl-β-cyclodextrin-normal saline))
[10] = in vivo, Formulation B (5% DMSO-10% Solutol HS 15-85% normal saline)

CC[C@@]1(O)C(=O)OCc2c1cc1n(c2=O)Cc2c-1nc1cc(F)c(C)c3c1c2[C@@H](NC(=O)CO)CC3 [Dxd]
Cmax (Pharmacokinetics in mice; [8]): 521 ng/mL
half-life (Pharmacokinetics in mice; [8]): 70.2 min
AUC(0-inf) (Pharmacokinetics in rats; both sexes, SD): 352 ng·h/mL
Cmax (Pharmacokinetics in rats; both sexes, SD): 621 ng/mL
clearance (Pharmacokinetics in rats; both sexes, SD): 144 mL/min/kg
half-life (Pharmacokinetics in rats; both sexes, SD): 70.3 min
Clinical observation: course after ataxia ([1]; 0.3 mpk dose group): the other rats gradually recovered
Clinical observation: animals showed ataxia immediately after administration ([1]; 0.3 mpk dose group): 31%
Clinical observation: died during recovery (among animals with ataxia) ([1]; 0.3 mpk dose group): 40%
Clinical observation: course after ataxia ([1]; 1 mpk dose group): the other rats gradually recovered
Clinical observation: animals showed ataxia immediately after administration ([1]; 1 mpk dose group): 31%
Clinical observation: died during recovery (among animals with ataxia) ([1]; 1 mpk dose group): 40%
gross dissection: lungs [1]: Focal/punctate dark red discoloration was observed in the lungs of some deceased rats
Body weight [1]: Slow weight gain/weight loss;
food intake [1]: Decreased food intake

[2H]C1([2H])OC(=O)[C@](O)(CC)c2cc3n(c(=O)c21)Cc1c-3nc2cc(F)c(C)c3c2c1[C@@H](NC(=O)CO)CC3 [Compound 2]
IC50 [2]: 27.1 nM
IC50 [3]: 114 nM
IC50 [4]: 0.98 nM
IC50 [5]: 7.17 nM
Cmax (Pharmacokinetics in mice; [9]): 449 ng/mL
half-life (Pharmacokinetics in mice; [9]): 27.3 min
AUC(0-inf) (Pharmacokinetics in rats; in vivo): 218 ng·h/mL
Cmax (Pharmacokinetics in rats; in vivo): 406 ng/mL
clearance (Pharmacokinetics in rats; in vivo): 235 mL/min/kg
half-life (Pharmacokinetics in rats; in vivo): 39.7 min
Clinical observation: course after ataxia ([1]; 0.3 mpk dose group): then gradually recovered
Clinical observation: animals showed ataxia immediately after administration ([1]; 0.3 mpk dose group): 13%
Clinical observation: course after ataxia ([1]; 1 mpk dose group): then gradually recovered
Clinical observation: animals showed ataxia immediately after administration ([1]; 1 mpk dose group): 25%
average food intake, ♀ rats ([1]; female rats, compared with the control (Dxd) group at the same dose): For ♀ rats, the average food intake in the Compound 2 group was higher than that in the control group at the same dose;
gross dissection: lungs [1]: no such pathological changes were found in any dose group
Body weight [1]: At the same dose, the effects of Compound 2 and Dxd on rat body weight and food intake were generally comparable;
food intake [1]: At the same dose, the effects of Compound 2 and Dxd on rat body weight and food intake were generally comparable;

[2H]C1([2H])OC(=O)[C@](O)(CC)c2cc3n(c(=O)c21)Cc1c-3nc2cc(F)c(C)c3c2c1[C@@H](NC(=O)[C@H](O)C1CC1)CC3 [Compound 3]
IC50 [2]: 17.1 nM
IC50 [3]: 40.3 nM
IC50 [4]: 0.97 nM
IC50 [5]: 4.37 nM
Cmax (Pharmacokinetics in mice; [10]): 4300 ng/mL
half-life (Pharmacokinetics in mice; [10]): 36.4 min
Residual content of parent toxin at 120 minutes (relative to 0 minutes) ([6]; CD1 mouse plasma): 104.97%
Residual content of parent toxin at 120 minutes (relative to 0 minutes) ([6]; Human plasma): 105.54%

[2H]C1([2H])OC(=O)[C@](O)(CC)c2cc3n(c(=O)c21)Cc1c-3nc2cc3c(cc2c1CCCO)OCO3 [Compound 12]
IC50 [7]: 7.05 nM
IC50 [4]: 1.7 nM
IC50 [5]: 7.29 nM

[2H]C1([2H])OC(=O)[C@](O)(CC)c2cc3n(c(=O)c21)Cc1c-3nc2cc(F)c(C)c3c2c1[C@@H](NC(=O)C[C@@H](C)O)CC3 [Compound 5]
IC50 [2]: 32.9 nM
IC50 [3]: 94.6 nM
IC50 [4]: 1.3 nM
IC50 [5]: 9.18 nM
Cmax (Pharmacokinetics in mice; [10]): 3520 ng/mL
half-life (Pharmacokinetics in mice; [10]): 40.4 min
Residual content of parent toxin at 120 minutes (relative to 0 minutes) ([6]; CD1 mouse plasma): 96.02%
Residual content of parent toxin at 120 minutes (relative to 0 minutes) ([6]; Human plasma): 107.73%

[2H]C1([2H])OC(=O)[C@](O)(CC)c2cc3n(c(=O)c21)Cc1c-3nc2cc(F)c(C)c3c2c1[C@@H](NC(=O)[C@@H](O)C1CC1)CC3 [Compound 4]
IC50 [2]: 19.3 nM
IC50 [3]: 55.3 nM
IC50 [4]: 0.88 nM
IC50 [5]: 4.06 nM

[2H]C1([2H])OC(=O)[C@](O)(CC)c2cc3n(c(=O)c21)Cc1c-3nc2cc(F)c(C)c3c2c1[C@@H](NC(=O)C[C@H](C)O)CC3 [Compound 6]
IC50 [2]: 46.6 nM
IC50 [3]: 121 nM
IC50 [4]: 3.11 nM
IC50 [5]: 13.3 nM
Cmax (Pharmacokinetics in mice; [10]): 2580 ng/mL
half-life (Pharmacokinetics in mice; [10]): 40.7 min
Residual content of parent toxin at 120 minutes (relative to 0 minutes) ([6]; CD1 mouse plasma): 105.93%
Residual content of parent toxin at 120 minutes (relative to 0 minutes) ([6]; Human plasma): 94.89%
